The values below come from ChEMBL document CHEMBL1135192, “Translocation of the 5-alkoxy substituent of 2,5-dialkoxyarylalkylamines to the 6-position: effects on 5-HT(2A/2C) receptor affinity” (Bioorg Med Chem Lett, 2002).

The target in assay [1] is T1, 5-hydroxytryptamine receptor 2A (Rattus norvegicus, UniProt P14842). Nature of the assay: Compound was evaluated for its ability to displace (+/-)[125I]-DOI from 5-hydroxytryptamine 2A receptor in cloned rat cell culture.
Assay [2] addresses T2, 5-hydroxytryptamine receptor 2C (Rattus norvegicus, UniProt P08909).
T2 sequence (P08909 whole entry): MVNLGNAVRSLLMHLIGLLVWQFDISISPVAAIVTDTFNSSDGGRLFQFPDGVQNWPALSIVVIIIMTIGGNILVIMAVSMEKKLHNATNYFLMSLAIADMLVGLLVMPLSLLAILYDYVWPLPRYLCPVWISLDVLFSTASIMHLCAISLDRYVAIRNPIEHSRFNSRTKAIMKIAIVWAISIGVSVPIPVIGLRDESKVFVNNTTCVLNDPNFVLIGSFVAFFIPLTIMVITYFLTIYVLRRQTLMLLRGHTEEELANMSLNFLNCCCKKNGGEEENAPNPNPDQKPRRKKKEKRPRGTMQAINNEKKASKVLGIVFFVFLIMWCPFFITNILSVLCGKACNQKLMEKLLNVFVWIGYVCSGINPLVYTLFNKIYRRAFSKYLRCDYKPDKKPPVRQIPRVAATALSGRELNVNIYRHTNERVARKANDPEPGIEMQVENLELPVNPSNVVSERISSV
Nature of the assay: Compound was evaluated for its ability to displace (+/-)[125I]-DOI from 5-hydroxytryptamine 2C receptor in cloned rat cell culture.

For a further assay, the species on record is Rattus norvegicus. Nature of the assay: Drug discrimination in LSD-trained rats. In kind it is functional.
For assay [3], the target named is T1, 5-hydroxytryptamine receptor 2A. Nature of the assay: biochemical.
Description: Compound was evaluated for its ability to displace [125I](R)-DOI from 5-hydroxytryptamine 2A receptor in cloned rat prefrontal cortex homogenate

T1 sequence (P14842 whole entry): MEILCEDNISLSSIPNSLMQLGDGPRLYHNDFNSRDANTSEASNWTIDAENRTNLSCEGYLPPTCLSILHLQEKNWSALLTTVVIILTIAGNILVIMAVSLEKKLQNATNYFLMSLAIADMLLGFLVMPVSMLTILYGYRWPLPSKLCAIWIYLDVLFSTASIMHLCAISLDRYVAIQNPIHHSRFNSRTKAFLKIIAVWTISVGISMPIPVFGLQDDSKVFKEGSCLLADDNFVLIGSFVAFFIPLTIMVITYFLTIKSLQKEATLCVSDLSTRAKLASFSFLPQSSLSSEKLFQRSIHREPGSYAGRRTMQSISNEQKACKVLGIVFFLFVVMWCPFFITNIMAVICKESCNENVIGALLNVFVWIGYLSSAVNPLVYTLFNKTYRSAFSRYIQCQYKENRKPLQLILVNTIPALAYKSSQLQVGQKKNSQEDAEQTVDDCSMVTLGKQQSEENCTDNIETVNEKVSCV

For `Cc1c2c(c(CC(C)N)c3c1CCO3)OCC2` (stereo not drawn), the Ki in assay [1] amounted to 6.3 nM; in assay [2], 7.5 nM.

On to `COc1cc(C)cc(OC)c1CC(C)N` (stereo not drawn), for which the values for the Ki in assay [1] and in assay [2] were 49 nM and 50 nM, respectively.

For `COc1cc(CC(C)N)c(OC)cc1C` (stereo not drawn) [DOM], in the assay filed under Rattus norvegicus, the ED50 came out at 0.89 µmol/kg. The compound further registered a Ki in assay [3] of 19 nM.

With `Cc1c2ccoc2c(CC(C)N)c2occc12` (stereo not drawn), the figures for the Ki in assay [1] and in assay [2] were 1.8 nM and 0.9 nM, respectively.

Broadly, the Ki is a measure of affinity in units of concentration, obtained from inhibition or displacement. A low value points to higher affinity. By ED50 is commonly meant the dose at which the effect has come halfway, by size or by number of responders. A low value points to greater potency.
